Data on nine compounds can be found in patent publication US5866596A, “3,4-diaryloxazolone derivatives, their methods of preparation and their uses in therapeutics” (Laboratories UPSA, priority 1996, dated 1999).

Series [1] addresses T1, COX-2 (purified enzyme from ewe placenta) (Ovis aries, UniProt P79208).
T1 construct: purified enzyme from ewe placenta; from tissue; host or cells: ewe placenta
T1 sequence (P79208 17-603): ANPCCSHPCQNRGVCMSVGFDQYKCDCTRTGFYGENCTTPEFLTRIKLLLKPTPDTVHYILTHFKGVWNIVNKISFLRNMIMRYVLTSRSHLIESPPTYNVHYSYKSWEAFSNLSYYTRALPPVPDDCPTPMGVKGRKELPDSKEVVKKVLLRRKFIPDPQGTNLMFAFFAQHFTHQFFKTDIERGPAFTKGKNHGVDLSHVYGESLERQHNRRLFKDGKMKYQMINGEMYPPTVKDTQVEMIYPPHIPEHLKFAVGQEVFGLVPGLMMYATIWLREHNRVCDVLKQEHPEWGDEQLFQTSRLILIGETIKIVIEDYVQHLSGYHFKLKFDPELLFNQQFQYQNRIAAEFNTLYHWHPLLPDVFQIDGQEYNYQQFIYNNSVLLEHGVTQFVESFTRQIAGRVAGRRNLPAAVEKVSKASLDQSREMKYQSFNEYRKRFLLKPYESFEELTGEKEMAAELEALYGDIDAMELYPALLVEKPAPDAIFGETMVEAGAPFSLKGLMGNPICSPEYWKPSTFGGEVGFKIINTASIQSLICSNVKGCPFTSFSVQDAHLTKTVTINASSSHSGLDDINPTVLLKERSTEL
As to the kind of experiment: Inhibition of COX-2 enzymatic activity (PGE2 by EIA). The class given is biochemical. The conditions noted are these: arachidonic acid 4 μM, mean of 4 determinations; for inhibition at 10 µM: 10^-5 M; for inhibition at 0.1 µM: 10^-7 M. As for the experimental part: (§1) Arachidonic acid (6 μM for COX-1, 4 μM for COX-2) is added to the reaction medium and incubation is carried out for 5 minutes at 25° C. When incubation has ended, the enzymatic reaction is stopped by the addition of 1N HCl and the PGE2 produced is determined by EIA. The results are expressed as the percentage inhibition of the COX-1 and COX-2 enzymatic activities and correspond to mean (±) standard deviations from the average of 4 determinations.

Series [2] deals with oedema with carrageenan. Description: Anti-inflammatory activity: test of oedema with carrageenan. The class given is in vivo. The conditions noted are these: Rattus norvegicus, 30 mg/kg oral, rats, after 3 hours, n=6 per dose, read-out: Anti-inflammatory activity, % inhibition (volume of the oedema). The protocol:
(§2) The anti-inflammatory activity of the compounds of the Examples has been evaluated according to the method of oedema with carrageenan and the analgesic activity has been evaluated according to the method of arthritis with kaolin.
The anti-inflammatory activity is evaluated in rats by the test of oedema with carrageenan. The product is administered orally at a rate of 2.5 ml/100 g (n=6 animals per dose) 2 hours 30 minutes after a water overload taken orally (2.5 ml/100 g). One hour after administration of the product, the oedema is induced by plantar subcutaneous injection of aqueous 2% carrageenan solution. The percentage inhibition of the volume of the oedema is calculated after 3 hours by measuring the volume of the paw with the aid of a mercury plethysmometer.

The nature of series [3]: Gastric tolerance (ulcerogenic dose). Set-up: species or system Charles River rats strain CD. The conditions noted are these: rat, in vivo. As for the experimental part:
The gastic tolerance study is carried out in Charles River rats strain CD weighing 110 to 150 g. The animals are placed on a water diet 24 hours before administration of the product or the vehicle alone, via the oral route (1 ml/100 g) (n=6 animals per dose). Six hours after administration,the animals are sacrificed and the stomachs are removed and opened along the greater curvature. The number of haemorrhagic spots and lines per stomach identified macroscopically permits establishing an ulceration index (0: no lesion, 1: 1 to 2 lesions, 2: 3 to 4 lesions, 3: 5 to 8 lesions, 4: 9 to 16 lesions, 5: more than 17 lesions) and estimating the 50% ulcerogenic dose (UD50 =dose expressed in mg/kg inducing 4 to 5 lesions).

For series [4], the system named is arthritis with kaolin (pain response). As to the kind of experiment: Analgesic activity: test of arthritis with kaolin. The following applies: 30 mg/kg oral, rats, 5 hours 30 minutes after administration, n=10 per dose. It is filed as in vivo. The protocol:
as §2
The analgesic activity is evaluated in rats by the test of arthritis with kaolin. Thirty minutes after intra-articular administration of an aqueous 10% suspension of kaolin, the product is administered orally at a rate of 1 ml/100 g (n=10 animals per dose). The percentage inhibition of the animal's pain response (by rating the way it walks) is calculated 5 hours 30 minutes after administration of the product.

The target of series [5] is T2, COX-1 (purified enzyme from ram seminal vesicles) (Ovis aries, UniProt P05979).
T2 construct: purified enzyme from ram seminal vesicles; from tissue; host or cells: ram seminal vesicles
T2 sequence (P05979 25-600): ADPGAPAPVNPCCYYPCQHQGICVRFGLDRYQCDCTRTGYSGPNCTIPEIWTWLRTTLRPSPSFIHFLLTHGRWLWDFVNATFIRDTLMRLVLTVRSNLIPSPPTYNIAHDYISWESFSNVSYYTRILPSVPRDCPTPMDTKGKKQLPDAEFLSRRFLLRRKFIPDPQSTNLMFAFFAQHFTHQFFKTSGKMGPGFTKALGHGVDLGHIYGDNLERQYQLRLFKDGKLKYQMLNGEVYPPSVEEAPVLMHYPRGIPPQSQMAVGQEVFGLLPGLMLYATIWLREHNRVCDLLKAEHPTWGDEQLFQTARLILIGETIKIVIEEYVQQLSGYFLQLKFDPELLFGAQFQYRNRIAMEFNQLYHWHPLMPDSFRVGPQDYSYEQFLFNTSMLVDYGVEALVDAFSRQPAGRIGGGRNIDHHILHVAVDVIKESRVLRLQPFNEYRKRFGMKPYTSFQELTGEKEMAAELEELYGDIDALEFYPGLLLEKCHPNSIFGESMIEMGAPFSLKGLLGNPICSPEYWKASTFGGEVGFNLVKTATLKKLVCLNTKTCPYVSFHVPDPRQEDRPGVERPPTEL
Description: Inhibition of COX-1 enzymatic activity (PGE2 by EIA). The class given is biochemical. The following applies: arachidonic acid 6 μM, mean of 4 determinations; for inhibition at 10 µM: 10^-5 M; for inhibition at 0.1 µM: 10^-7 M. The protocol:
as §1

The structures appear in SMILES notation. Where two headings read alike, the source gives them in different places. Where only a bound is given, the exact number is not on record here.

By inhibition is commonly meant the relative decrease from the control value, in per cent. On to `CS(=O)(=O)c1ccc(-c2coc(=O)n2-c2ccc(F)cc2)cc1` [Example 4, 3-(4-fluorophenyl)-4-(4-methanesulfonylphenyl)-3H-oxazol-2-one], for which the inhibition at 10 µM was found to be 82.7% in series [1] and 0% in series [5]. In addition, the inhibition at 0.1 µM was found to be 12% in series [1] and 0% in series [5]. The inhibition in vivo at 30 mg/kg in series [2] stood at 53%. Moreover, the TD50 at 6 h in series [3] (po) is > 300 mg/kg. Moreover, the “Analgesic activity, % inhibition (pain response)” value (from here on “Analgesic activity, % inhibition”) in series [4] worked out at 55%.
In series [1], `CS(=O)(=O)c1ccc(-c2coc(=O)n2-c2ccccc2)cc1` [Example 16, 3-phenyl-4-(4-methanesulfonylphenyl)-3H-oxazol-2-one] came in with an inhibition at 10 µM of 78% and an inhibition at 0.1 µM of 16%. For the same compound, in series [2], the inhibition in vivo at 30 mg/kg was 45%. Also, the “Analgesic activity, % inhibition” value in series [4] came out at 60%. In addition, in series [5], the inhibition at 10 µM is 0% and testing at 0.1 µM gave an inhibition of 0%.
As to `CS(=O)(=O)c1ccc(-c2coc(=O)n2-c2ccc(Cl)cc2)cc1` [Example 17, 3-(4-chlorophenyl)-4-(4-methanesulfonylphenyl)-3H-oxazol-2-one], in series [1], the inhibition at 10 µM is 85% and 0.1 µM produced 11% inhibition. Further, in series [2], the inhibition in vivo at 30 mg/kg was 32%. In series [4], the “Analgesic activity, % inhibition” value stood at 42%. Moreover, in series [5], the inhibition at 10 µM came to 0% and at 0.1 µM the inhibition was 0%.
In series [1], `Cc1cccc(-n2c(-c3ccc(S(C)(=O)=O)cc3)coc2=O)c1` [Example 18, 3-(3-methylphenyl)-4-(4-methanesulfonylphenyl)-3H-oxazol-2-one] came in with an inhibition at 10 µM of 92% and an inhibition at 0.1 µM of 14%. Moreover, the inhibition in vivo at 30 mg/kg in series [2] stood at 18%. The “Analgesic activity, % inhibition” value in series [4] came to 0%. In series [5], this compound had an inhibition at 10 µM of 0% and an inhibition at 0.1 µM of 0%.
`CS(=O)(=O)c1ccc(-c2coc(=O)n2-c2cccc(Cl)c2)cc1` [Example 19, 3-(3-chlorophenyl)-4-(4-methanesulfonylphenyl)-3H-oxazol-2-one]: the inhibition at 10 µM in series [1] is 87%; in series [5] it was 0%. For the same compound, the inhibition at 0.1 µM in series [1] came out at 18%; in series [5] it was 0%. Moreover, in series [2], the inhibition in vivo at 30 mg/kg came out at 37%. The “Analgesic activity, % inhibition” value in series [4] turned out to be 60%.
Take `CS(=O)(=O)c1ccc(-c2coc(=O)n2-c2ccc(Cl)c(Cl)c2)cc1` [Example 20, 3-(3,4-dichlorophenyl)-4-(4-methanesulfonylphenyl)-3H-oxazol-2-one]: in series [1], the inhibition at 10 µM was 94% and testing at 0.1 µM gave an inhibition of 26%. In series [2], the inhibition in vivo at 30 mg/kg is 48%. For the same compound, the “Analgesic activity, % inhibition” value in series [4] is on record as 75%. Also, in series [5], the inhibition at 10 µM worked out at 0% and 0.1 µM produced 0% inhibition.
In series [1], `CS(=O)(=O)c1ccc(-c2coc(=O)n2-c2cccc(F)c2)cc1` [Example 21, 3-(3-fluorophenyl)-4-(4-methanesulfonylphenyl)-3H-oxazol-2-one] had an inhibition at 10 µM of 76% and an inhibition at 0.1 µM of 11%. Moreover, the inhibition in vivo at 30 mg/kg in series [2] is 55%. Also, in series [5], the inhibition at 10 µM is 0% and the inhibition at 0.1 µM is 0%.
`Cc1ccc(-n2c(-c3ccc(S(C)(=O)=O)cc3)coc2=O)cc1` [Example 22, 3-(4-methylphenyl)-4-(4-methanesulfonylphenyl)-3H-oxazol-2-one]: in series [1], the inhibition at 10 µM is 88% and the inhibition at 0.1 µM came out at 12%. Further, the inhibition in vivo at 30 mg/kg in series [2] was determined as 42%.
With `COc1ccc2c(c1)c(CC(=O)O)c(C)n2C(=O)c1ccc(Cl)cc1` [indomethacin, reference compound], in series [3] (rats, oral, 6 hours after administration, dose inducing 4 to 5 lesions, read-out: UD50 (confidence limit), 50% ulcerogenic dose), the TD50 at 6 h was determined as 8.3 mg/kg.
